The values below come from patent US10995068B2, “Synthetic sphingolipid-like molecules, drugs, methods of their synthesis and methods of treatment” (The Regents of the University of California, priority 2015, dated 2021).

The test system of data set [1] is SW620 cells. Briefly: Phosphorylation in intact cells by UPLC-MS/MS, SW620. As to conditions: 10 μM, 16 h incubation, percent of total compound recovered by UPLC-MS/MS. In kind it is in vitro ADME, human. As for the experimental part: Mass spectrometric quantification: One million PC3 or 5 million SW620 cells in one well of a 6 well plate are treated with 10 μM FTY720 or 5 for 16 h. Media (100 μl) is removed from the well and combined with 100 μl of acetonitrile. Cells are collected by scraping, pelleted, and re-suspended in 100 μl of HPLC-grade water followed by the addition of 100 μl acetonitrile. Seventy-five nanograms of the compounds not being quantified (FTY720 and FTY720-P for analysis of the phosphorylation of 5, or 5 and 5-P for the analysis of FTY720/FYT720-P) is added to serve as an internal standard to allow correction for loss of compound during sample preparation. […] Insoluble material is again removed by centrifugation and the supernatant analyzed for compound content. Twenty microliters of this de-proteinated sample is analyzed by UPLC-MS/MS (Waters Micromass Quattro Premier XE) equipped with a C18 reversed phase column (Waters) using an acetonitrile (+0.2% acetic acid) gradient elution. […] The cone voltages are 30V for FTY720 and 5, and 20V for FTY720-P and 5-P. A standard curve is generated using pure compounds to allow for quantification; standard curves were linear from 50-1000 ng/ml with an R^2 of 0.98 or greater. […]

For data set [2], the system named is colon cancer cells SW620. Briefly: Colony formation assay, SW620. In kind it is cell-based, human. As to conditions: anchorage-independent growth, colonies counted after 12 days. As for the experimental part:
The difference in sensitivity stems from the inability of neoplastic cells to adapt to decreases of metabolism.
Cell analysis: Viability and 4F2hc expression are determined by vital dye exclusion and flow cytometry. Oxygen consumption is measured with an XF24 Extracellular Flux Analyzer (Seahorse Bioscience); values are normalized to total protein. Confocal microscopy is performed on either a Zeiss LSM780 or a Nikon Eclipse Ti; vacuolation was monitored using a Nikon TE2000-S equipped with DIC filters. Anchorage-independent growth of SW620 cells is measured in DMEM-10 containing 0.35% agarose with a 0.5% agarose bottom layer. PBMNCs are obtained from the normal blood donor program run by the CTSA-supported Institute for Clinical and Translational Science at UCI under IRB protocols 2015-1883 (Edinger) and 2001-2058 (ICTS). […] Plates were incubated at 37° C. in a humidified atmosphere containing 5% CO2 and colonies were counted after 12 days.
Cell culture and reagents. […] Cell viability was measured by vital dye exclusion using either propidium iodide or DAPI at 1 μg/ml. Analysis of cell surface 4F2hc levels with PE-conjugated anti-CD98 was restricted to viable cells as determined by DAPI exclusion. Anchorage-independent growth of SW620 cells was measured in DMEM-10 containing 0.35% low melt agarose with a 0.5% agarose bottom layer. […]

For the compound `CCCCCCCCc1ccc([C@H]2CCN[C@@H]2CO)cc1.Cl` [Compound 5, (2S,3R)-2-(hydroxymethyl)-3-(4-octylphenyl)Pyrrolidinium chloride], the “efficiency of phosphorylation in intact cells” value in data set [1] is reported as “phosphorylated slightly more efficiently than FTY720”. For the same compound, the “sensitivity in colony formation assays” value in data set [2] was “highly sensitive”.
